Reference: patent US7078395B1, “Methods for treating or preventing cancer by preventing, inhibiting or arresting cell cycling” (priority 1999, dated 2006)

Experiments:
[1] = test system: MCF-7 breast cancer cells; assay: Cell Titer 96 cell proliferation assay, 4-day drug exposure; format: cell-based
Experimental: (§1) MCF-7 (ER+) and MDA-MB-231 (ER−) breast cancer cells were obtained from the American Type Culture Collection (Rockville, Md.). Cells were routinely cultured in 25 cm^2 culture flasks in Eagle's minimum essential medium (EMEM) with Hepes buffer (20 mM). This medium was supplemented with L-glutamine (2 mM), sodium hydrogen carbonate (10 mM), 1% non-essential amino acids and 5% (v/v) foetal calf serum (FCS). Before adding test compounds, cells were washed with phosphate-buffered saline (PBS) and treatments added in phenol-red free medium containing 2% stripped FCS and supplements. The effects of 2-MeOE1 or 2-MeOEMATE on the growth of MCF-7 cells was assessed using a Cell Titer 96 cell proliferation assay (Promega, Southampton, Hants, UK) according to the manufacturers' instructions. For this, cells (5000 per well) were cultured in medium containing phenol-red and 10% FCS and were exposed to a drug for 4 days before the assay was performed. For MDA-MB-231 cells, cell numbers were determined using a Coulter counter.

[2] = test system: MCF-7 breast cancer cells; assay: Cell morphology by photomicrographs; format: cell-based; conditions: 1 μM, 24 h
Experimental: as §1
Photomicrographs of control and treated cells were taken under normal conditions of light and exposure using an Olympus SL35 Type 12 camera under an Olympus CK2 microscope (×100 magnification).

MCF-7 cells [3] = assay: Flow cytometry analysis of cell cycle distribution (propidium iodide); format: cell-based; conditions: 10 μM; for proportion of cells in the G1 phase: time-course study (untreated 66%)
Experimental: Cells were cultured in the presence of 2-MeOE1, 2-MeOEMATE or vehicle for up to 48 h. To examine the reversibility of the effects of 2-MeOEMATE on the cell cycle, cells were treated for 24 h with the drug after which cells were washed and cultured in fresh medium without drug for a further 24 h period.
To prepare cells for analysis of DNA content, cells were trypsinised (0.25% trypsin, 0.02% EDTA), washed with PBS and fixed with 70% ethanol. Cells were collected by centrifugation, re-suspended in PBS (1-2×10^6 cells/ml) and treated with RNase A (0.1 mg/ml) and stained with propidium iodide (0.05 mg/ml) for 30 min at room temperature. Cells were analysed with a flow cytometer (FACscan, Becton Dickinson Immunocytormetry System, Bedford Mass.).

MCF-7 cells [4] = assay: TUNEL analysis of apoptosis; format: cell-based; conditions: 10 μM, 48 h
From the text: The ability of 2-MeOEMATE to induce apoptosis in MCF-7 cells was examined by TUNEL analysis using an in situ cell death detection kit (Boehringer Manheim UK Ltd., Lewes, East Sussex, UK). Cells were fixed and permeabilised according to the manufacturers' instructions. Stained apoptotic cells were quantitated by flow cytometry.

[5] = test system: MCF-7 breast cancer cells; assay: Irreversible inhibition of cell growth, Stage 1 and Stage 2 (Coulter cell counter); format: cell-based; conditions: for cell numbers, % of the control cell number, Stage 1: 6 days
Experimental: MCF-7 breast cancer cells were seeded into multi-well culture plates at a density of 10^5 cells/well. Cells were allowed to attach and grown until about 30% confluent when they were treated as follows:
Cells were grown for 6 days in growth medium containing the above drugs with changes of medium/drug every 3 days. At the end of this period cell numbers were counted using a Coulter cell counter.
After treatment of cells for a 6-day period with the above drugs cells were re-seeded at a density of 10^4 Cells/well. No further treatments were added. Cells were allowed to continue to grow for a further 6 days in the presence of growth medium. At the end of this period cell numbers were again counted.
Stages 1 and 2 described above were repeated using Control—no treatment, EMATE 20 μM and EMATE 5 μM.
MCF-7 breast cancer cells were seeded into multi-well culture plates at a density of 10^5 cells/well. Cells were allowed to attach and grown until about 30% confluent when they were treated as follows: • Control—no treatment • Compound of Interest (COI) 20 μM
Cells were grown for 6 days in growth medium containing the COI with changes of medium/COI every 3 days. At the end of this period cell numbers were counted using a Coulter cell counter.
After treatment of cells for a 6-day period with the COI cells were re-seeded at a density of 10^4 cells/well. No further treatments were added. Cells were allowed to continue to grow for a further 6 days in the presence of growth medium. At the end of this period cell numbers were again counted.

MCF7 cells = assay: Proportion of cells in mitosis (PI stained cytospins, confocal microscopy); format: cell-based; conditions: 24 hours (control 4%)
Experimental: To determine the proportion of cells in mitosis, drug treated cells were collected by trypsinisation and cytospins prepared. Cells were fixed in ice cold methanol for 5 minutes, air dried and DNA was stained using propidium iodide (PI) (0.1 mg/ml in phosphate buffered saline (PBS) containing 10% (v/v) newborn calf serum and 0.05% (w/v) sodium azide). Cells were analysed by confocal microscopy using a Zeiss Axiovert 100 M microscope equipped with the LSM 510 confocal system (Zeiss, Jena, Germany).
Effect of estrone derivatives on mitosis in MCF7 cells. MCF7 cells were treated with the indicated compounds for 24 hours. Cells were recovered by trypsinisation and cytospins prepared. DNA was stained with PI and cells in mitosis (i.e., with condensed chromosomes) determined as a percentage of total cells.

steroid sulphatase = target: T1, steroid sulphatase (Homo sapiens, UniProt P08842); conditions: compared with EMATE (18, 19); cited from earlier work
T1 sequence (P08842 22-583): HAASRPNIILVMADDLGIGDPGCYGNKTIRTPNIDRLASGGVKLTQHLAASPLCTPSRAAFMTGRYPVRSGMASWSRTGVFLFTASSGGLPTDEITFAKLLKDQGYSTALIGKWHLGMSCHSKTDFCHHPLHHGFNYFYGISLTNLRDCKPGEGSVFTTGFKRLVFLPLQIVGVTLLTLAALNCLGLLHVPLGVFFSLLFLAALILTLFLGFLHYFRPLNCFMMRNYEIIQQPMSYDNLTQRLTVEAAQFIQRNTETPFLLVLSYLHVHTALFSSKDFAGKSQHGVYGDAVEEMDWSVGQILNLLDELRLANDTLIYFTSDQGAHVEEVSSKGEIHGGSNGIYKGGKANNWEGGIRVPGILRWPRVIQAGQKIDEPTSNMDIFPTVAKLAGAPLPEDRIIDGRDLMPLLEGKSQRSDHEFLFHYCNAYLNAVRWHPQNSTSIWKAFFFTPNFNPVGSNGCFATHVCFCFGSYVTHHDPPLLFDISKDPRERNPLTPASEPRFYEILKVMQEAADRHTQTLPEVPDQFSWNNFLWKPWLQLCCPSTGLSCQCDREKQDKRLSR

[6] = Homo sapiens, MCF7, 96 h, read-out: inhibition of proliferation of MCF-7 cells

COc1cc2c(cc1OS(N)(=O)=O)CCC1C2CC[C@]2(C)C(=O)CCC12 (some centres unmarked) [2-MeOEMATE, 2-methoxyoestrone-3-O-sulphamate]
inhibition of proliferation of MCF-7 cells ([1]; 10 μM, 4 days): no further effect on cell proliferation
inhibition at 0.1 µM [1, 6]: 29%
inhibition at 1 µM [1, 6]: 52%
effect on cell morphology [2]: significant increase in the number of rounded and detached cells
time by which accumulation of cells in the G2/M phase was apparent (MCF-7 cells [3]): ≤ 12 h
proportion of cells in the G1 phase (MCF-7 cells [3]; 12 h exposure): 50%
cell cycle distribution, G1 (MCF-7 cells [3]; 24 h): 10
cell cycle distribution, G2/M (MCF-7 cells [3]; 24 h): 60
cell cycle distribution, S (MCF-7 cells [3]; 24 h): 8
cell cycle distribution, Sub-G1 (MCF-7 cells [3]; 24 h): 22
cell cycle distribution, G1 (MCF-7 cells [3]; 24 h + 24 h drug-free culture): 8
cell cycle distribution, G2/M (MCF-7 cells [3]; 24 h + 24 h drug-free culture): 57
cell cycle distribution, S (MCF-7 cells [3]; 24 h + 24 h drug-free culture): 7
cell cycle distribution, Sub-G1 (MCF-7 cells [3]; 24 h + 24 h drug-free culture): 27
proportion of cells in the G1 phase (MCF-7 cells [3]; 24 h exposure): 23%
cell cycle distribution, G1 (MCF-7 cells [3]; 48 h): 14
cell cycle distribution, G2/M (MCF-7 cells [3]; 48 h): 58
cell cycle distribution, S (MCF-7 cells [3]; 48 h): 9
cell cycle distribution, Sub-G1 (MCF-7 cells [3]; 48 h): 18
fluorescently labelled (TUNEL positive) cells as proportion of the cell population (MCF-7 cells [4]): approximately 10%
cell numbers, % of the control cell number, Stage 1 ([5]; 1 m (so in the source)): 52%
cell numbers, % of the control cell number, Stage 1 ([5]; 5 μm): 43%
effect on cell numbers, Stage 2 (irreversible growth inhibition) ([5]; re-seeded after 6-day treatment, further 6 days without drug): severely growth restricted
mitotic cells, percentage of total cells (MCF7 cells; 500 nM): 26%
mitotic cells, percentage of total cells (MCF7 cells; 5 μM): 38%
potency as a steroid sulphatase inhibitor (steroid sulphatase): equipotent with EMATE
